Measurements from PubChem BioAssay (NCI).
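Interpolation was linear, between the two tested concentrations surrounding the appropriate level; five concentrations were tested over 48 hours in 96-well plates. The concentration for 50% growth inhibition is given as GI50. TGI: total growth inhibition.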

Tests used:
Test in all cases: NCI anticancer screen, dose series, 48 h
CCRF-CEM leukemia = system: CCRF-CEM leukemia
U251 CNS = system: U251 CNS
SW-620 colon = system: SW-620 colon
ACHN renal = system: ACHN renal
HOP-62 NSCLC = system: HOP-62 NSCLC
SK-OV-3 ovarian = system: SK-OV-3 ovarian
MDA-MB-435 = system: MDA-MB-435
NCI/ADR-RES ovarian = system: NCI/ADR-RES ovarian
A549 NSCLC = system: A549 NSCLC
OVCAR-3 ovarian = system: OVCAR-3 ovarian
HT29 colon = system: HT29 colon
MCF7 breast = system: MCF7 breast
NCI-H226 lung = system: NCI-H226 lung
HCC-2998 colon = system: HCC-2998 colon
DU-145 prostate = system: DU-145 prostate
SF-539 CNS = system: SF-539 CNS
RPMI-8226 leukemia = system: RPMI-8226 leukemia
KM12 colon = system: KM12 colon
NCI-H23 lung = system: NCI-H23 lung
UO-31 renal = system: UO-31 renal
SF-268 CNS = system: SF-268 CNS
HCT-116 colon = system: HCT-116 colon
PC-3 prostate = system: PC-3 prostate
MALME-3M melanoma = system: MALME-3M melanoma
RXF 393 renal = system: RXF 393 renal
SK-MEL-2 melanoma = system: SK-MEL-2 melanoma
IGROV1 ovarian = system: IGROV1 ovarian
TK-10 renal = system: TK-10 renal
UACC-257 melanoma = system: UACC-257 melanoma
MDA-MB-231 breast = system: MDA-MB-231 breast
SK-MEL-28 melanoma = system: SK-MEL-28 melanoma
LOX IMVI melanoma = system: LOX IMVI melanoma
786-0 renal = system: 786-0 renal
SR leukemia = system: SR leukemia
OVCAR-5 ovarian = system: OVCAR-5 ovarian
OVCAR-8 ovarian = system: OVCAR-8 ovarian
COLO 205 colon = system: COLO 205 colon
T-47D breast = system: T-47D breast
NCI-H522 lung = system: NCI-H522 lung
EKVX NSCLC = system: EKVX NSCLC
SK-MEL-5 melanoma = system: SK-MEL-5 melanoma
HCT-15 colon = system: HCT-15 colon
HS 578T breast = system: HS 578T breast
MOLT-4 leukemia = system: MOLT-4 leukemia
SN12C renal = system: SN12C renal
BT-549 breast = system: BT-549 breast
HOP-92 NSCLC = system: HOP-92 NSCLC
UACC-62 melanoma = system: UACC-62 melanoma
SNB-75 CNS = system: SNB-75 CNS
NCI-H460 lung = system: NCI-H460 lung
M14 melanoma = system: M14 melanoma
OVCAR-4 ovarian = system: OVCAR-4 ovarian
SNB-19 CNS = system: SNB-19 CNS
HL-60(TB) leukemia = system: HL-60(TB) leukemia
SF-295 CNS = system: SF-295 CNS
K-562 leukemia = system: K-562 leukemia
CAKI-1 renal = system: CAKI-1 renal

CCOC(=O)c1c(C)c2c(n1C)CSc1cc(S(=O)(=O)c3ccccc3)c(=O)[nH]c1-2
GI50 (CCRF-CEM leukemia): 27.5 µM | TGI (CCRF-CEM leukemia): > 100 µM | GI50 (U251 CNS): 28.4 µM | TGI (U251 CNS): > 100 µM | GI50 (SW-620 colon): 35.1 µM | TGI (SW-620 colon): > 100 µM | GI50 (ACHN renal): 26.3 µM | TGI (ACHN renal): > 100 µM | GI50 (HOP-62 NSCLC): 31.5 µM | TGI (HOP-62 NSCLC): 89.9 µM | GI50 (SK-OV-3 ovarian): 28.9 µM | TGI (SK-OV-3 ovarian): > 100 µM | GI50 (MDA-MB-435): 30.8 µM | TGI (MDA-MB-435): > 100 µM | GI50 (NCI/ADR-RES ovarian): 22.6 µM | TGI (NCI/ADR-RES ovarian): > 100 µM | GI50 (A549 NSCLC): 30.2 µM | TGI (A549 NSCLC): > 100 µM | GI50 (OVCAR-3 ovarian): 17.1 µM | TGI (OVCAR-3 ovarian): 43.6 µM | GI50 (HT29 colon): 16.3 µM | TGI (HT29 colon): 34.5 µM | GI50 (MCF7 breast): 19.3 µM | TGI (MCF7 breast): > 100 µM | GI50 (NCI-H226 lung): 23.9 µM | TGI (NCI-H226 lung): > 100 µM | GI50 (HCC-2998 colon): 35.2 µM | TGI (HCC-2998 colon): > 100 µM | GI50 (DU-145 prostate): 23.1 µM | TGI (DU-145 prostate): > 100 µM | GI50 (SF-539 CNS): 24.5 µM | TGI (SF-539 CNS): > 100 µM | GI50 (RPMI-8226 leukemia): 14.8 µM | TGI (RPMI-8226 leukemia): > 100 µM | GI50 (KM12 colon): 28.8 µM | TGI (KM12 colon): > 100 µM | GI50 (NCI-H23 lung): 28.6 µM | TGI (NCI-H23 lung): > 100 µM | GI50 (UO-31 renal): 17.4 µM | TGI (UO-31 renal): > 100 µM | GI50 (SF-268 CNS): 27.8 µM | TGI (SF-268 CNS): > 100 µM | GI50 (HCT-116 colon): 22.7 µM | TGI (HCT-116 colon): 86.9 µM | GI50 (PC-3 prostate): 14 µM | TGI (PC-3 prostate): > 100 µM | GI50 (MALME-3M melanoma): 35.1 µM | TGI (MALME-3M melanoma): > 100 µM | GI50 (RXF 393 renal): 44.4 µM | TGI (RXF 393 renal): > 100 µM | GI50 (SK-MEL-2 melanoma): 36.2 µM | TGI (SK-MEL-2 melanoma): > 100 µM | GI50 (IGROV1 ovarian): 16.7 µM | TGI (IGROV1 ovarian): > 100 µM | GI50 (TK-10 renal): 34.4 µM | TGI (TK-10 renal): > 100 µM | GI50 (UACC-257 melanoma): 34.5 µM | TGI (UACC-257 melanoma): > 100 µM | GI50 (MDA-MB-231 breast): 24.5 µM | TGI (MDA-MB-231 breast): > 100 µM | GI50 (SK-MEL-28 melanoma): 37.2 µM | TGI (SK-MEL-28 melanoma): > 100 µM | GI50 (LOX IMVI melanoma): 24.1 µM | TGI (LOX IMVI melanoma): > 100 µM | GI50 (786-0 renal): 35.1 µM | TGI (786-0 renal): > 100 µM | GI50 (SR leukemia): 29.3 µM | TGI (SR leukemia): > 100 µM | GI50 (OVCAR-5 ovarian): 45.6 µM | TGI (OVCAR-5 ovarian): > 100 µM | GI50 (OVCAR-8 ovarian): 36.7 µM | TGI (OVCAR-8 ovarian): > 100 µM | GI50 (COLO 205 colon): 14.3 µM | TGI (COLO 205 colon): 36.3 µM | GI50 (T-47D breast): 10.5 µM | TGI (T-47D breast): 74.7 µM | GI50 (NCI-H522 lung): 25.4 µM | TGI (NCI-H522 lung): > 100 µM | GI50 (EKVX NSCLC): 14.6 µM | TGI (EKVX NSCLC): 74.9 µM | GI50 (SK-MEL-5 melanoma): 13.2 µM | TGI (SK-MEL-5 melanoma): 29.6 µM | GI50 (HCT-15 colon): 25.8 µM | TGI (HCT-15 colon): > 100 µM | GI50 (HS 578T breast): 40.1 µM | TGI (HS 578T breast): > 100 µM | GI50 (MOLT-4 leukemia): 11.2 µM | TGI (MOLT-4 leukemia): 98.6 µM | GI50 (SN12C renal): 27.6 µM | TGI (SN12C renal): > 100 µM | GI50 (BT-549 breast): 21.1 µM | TGI (BT-549 breast): > 100 µM | GI50 (HOP-92 NSCLC): 1.11 µM | TGI (HOP-92 NSCLC): 28.5 µM | GI50 (UACC-62 melanoma): 14.2 µM | TGI (UACC-62 melanoma): 69.1 µM | GI50 (SNB-75 CNS): 42.7 µM | TGI (SNB-75 CNS): > 100 µM | GI50 (NCI-H460 lung): 25.7 µM | TGI (NCI-H460 lung): > 100 µM | GI50 (M14 melanoma): 27.9 µM | TGI (M14 melanoma): 77.7 µM | GI50 (OVCAR-4 ovarian): 27.8 µM | TGI (OVCAR-4 ovarian): > 100 µM | GI50 (SNB-19 CNS): 26.9 µM | TGI (SNB-19 CNS): > 100 µM | GI50 (HL-60(TB) leukemia): 25.2 µM | TGI (HL-60(TB) leukemia): > 100 µM | GI50 (SF-295 CNS): 14 µM | TGI (SF-295 CNS): 61.9 µM | GI50 (K-562 leukemia): 14.6 µM | TGI (K-562 leukemia): > 100 µM | GI50 (CAKI-1 renal): 21.1 µM | TGI (CAKI-1 renal): > 100 µM
